Data taken from patent US20240140931A1, “TRICYCLIC COMPOUNDS AND USES THEREOF” (HUTCHMED LIMITED, priority 2021, published 2024).

Assays:
[1] = tested on: pERK1/2 (Thr202/Tyr204) in Miapaca2 cells; test: Assay of intracellular pERK1/2 (Thr202/Tyr204) phosphorylation; assay type: cell-based
Method: Example 3 Assay of Intracellular pERK1/2 (Thr202/Tyr204) Phosphorylation
1. Reagents and Materials • pERK1/2 (Thr202/Tyr204) HTRF kit: Cisbio, Cat #64ERKPEH; • Cell line: Miapaca2, ATCC, CRL-1420; • OptiPlate™-384-well plate: PerkinElmer, Cat #6007299; • 96-well plate: Corning, Cat #353072; • Instrument: EnVision2104, PerkinElmer.
2. Preparation of Reaction Solutions • The test compound was dissolved in DMSO and diluted with DMSO to 600.0 μM, and the compound was further 3-fold diluted with DMSO to: 600.0, 200.0, 66.7, 22.2, 7.4, 2.5, 0.82 and 0.27 μM. Then 10 μL of the compound at different dilution concentrations was added to 190 μL of a DMEM medium to prepare a 10× test compound, wherein DMSO was at the concentration of 5% (DMSO was at the final concentration of 0.5%). • 1× cell lysis buffer: 4× cell lysis stock solution (provided by the kit) was diluted 4-fold with deionized water, and then 1% 100× blocking stock solution (provided by the kit) was added thereto. • pERK1/2 detection solution (prepared just before use): the pERK1/2 d2 antibody (provided by the kit) and pERK1/2 Cryptate antibody (provided by the kit) were diluted with the detection solution (provided by the kit) at a ratio of 1:1:38.
3. Experimental Steps • Miapaca2 cells were inoculated into a 96-well plate at a density of 10000 cells/well at 90 μL/well and cultured in a cell incubator at 5% CO2 and 37° C. overnight. • 10 μL of 10× test compound was added to the 90 μL cell culture 96-well plate; to the cell positive control well was added 10 μL of 5% DMSO culture solution; and the plate was cultured in a cell incubator at 5% CO2 and 37° C. for 2 hours. • The medium in the 96-well plate was removed; 50 μL of 1× cell lysis buffer was added to each well; the plate was placed in a microplate shaker; and lysis under shaking was carried out at 900 rpm at room temperature for 1 hour. • 16 μL of the lysis buffer in the 96-well plate was taken and transferred to a 384-well plate, and centrifugation was carried out at 1000 rpm for 30 seconds; then 4 μL of pERK1/2 detection solution was added to each well and centrifugation was carried out at 1000 rpm for 30 seconds; and the 384-well plate was sealed with a sealing membrane and incubated at 25° C. on a low-speed shaker (100 rpm) in the dark for 2 hours. • The fluorescence value (relative fluorescence units, RFU) of each well was detected on EnVision2104 (emission 1: 665 nm, emission 2: 615 nm).
wherein • the fluorescence ratio of compound well refers to the fluorescence ratio of the well containing the test compounds; • the fluorescence ratio of negative control well refers to the fluorescence ratio of the background containing the cell lysis buffer and no Miapaca2 cells; • the fluorescence ratio of positive control well refers to the fluorescence ratio of the well containing 0.5% DMSO and Miapaca2 cells.
(§1) IC50 values were calculated following formula 205: y=A+((B−A)/(1+((C/X)^D))), by using the XL-Fit 5.0 software.

[2] = target: Human full-length SHP2 recombinant protein (Homo sapiens (Human), UniProt Q06124); test: Assay of full-length SHP2 phosphatase activity; assay type: biochemical; conditions: DiFMUP substrate, with activating peptide
Method: Example 2 Assay of Full-Length SHP2 Phosphatase Activity
1. Reagents and Materials • Human full-length SHP2 recombinant protein: BPS Bioscience, Cat #79018; • SHP2 substrate DiFMUP (1 mM): BPS Bioscience, Cat #79769; • SHP2 activating peptide (100 μM): BPS Bioscience, Cat #79319-2; • DTT: Merck, Cat #DTT-RO; • 384-well plate: Corning, Cat #3575; • 96-well plate: Thermo Fisher Scientific, Cat #249952; • Instrument: EnVision 2104, PerkinElmer.
2. Preparation of Reaction Solutions
The test compound was dissolved in DMSO and diluted with DMSO to 100.0 μM, and the compound was further 3-fold diluted with DMSO to: 100.00, 33.33, 11.11, 3.70, 1.23, 0.41, 0.14 and 0.05 μM.
3. Experimental Steps • To the corresponding wells of the 384-well plate was added 2.5 μL of 4× test compound or 2.5 μL of 4% DMSO solution, and centrifugation was carried out at 1000 rpm for 30 seconds. • To the test compound well and positive control well was added 2.5 μL of 4× mixed solution of SHP2 enzyme/activating peptide while to the negative control well was added 2.5 μL of 1× enzymatic reaction buffer; centrifugation was carried out at 1000 rpm for 30 seconds and incubation was carried out at room temperature for 30 minutes. • To each well was added 5 μL of 2×DiFMUP substrate to initiate the enzymatic reaction, then the plate was transiently oscillated and centrifuged at 1000 rpm for 30 seconds, and the 384-well plate was sealed with a sealing membrane and incubated at 25° C. on a low-speed shaker (100 rpm) in the dark for 60 minutes. • The fluorescence value (relative fluorescence units, RFU) of each well was detected on EnVision2104 (excitation: 355 nm, emission: 460 nm).
wherein • the RFU of compound well refers to the fluorescence reading at 460 nm of the well containing the test compounds; • the RFU of negative control well refers to the fluorescence reading at 460 nm of the background well containing 1% DMSO and the enzymatic reaction buffer; • the RFU of positive control well refers to the fluorescence reading at 460 nm of the well containing 1% DMSO and the mixed solution of SHP2 enzyme/activating peptide.
as §1

[3] = Homo sapiens, MIA PaCa-2, 2 h, pERK1/2 (Thr202/Tyr204) HTRF
[4] = pERK1/2 (Thr202/Tyr204) HTRF, 2 hours

Sequence of Human full-length SHP2 recombinant protein (Q06124 whole entry): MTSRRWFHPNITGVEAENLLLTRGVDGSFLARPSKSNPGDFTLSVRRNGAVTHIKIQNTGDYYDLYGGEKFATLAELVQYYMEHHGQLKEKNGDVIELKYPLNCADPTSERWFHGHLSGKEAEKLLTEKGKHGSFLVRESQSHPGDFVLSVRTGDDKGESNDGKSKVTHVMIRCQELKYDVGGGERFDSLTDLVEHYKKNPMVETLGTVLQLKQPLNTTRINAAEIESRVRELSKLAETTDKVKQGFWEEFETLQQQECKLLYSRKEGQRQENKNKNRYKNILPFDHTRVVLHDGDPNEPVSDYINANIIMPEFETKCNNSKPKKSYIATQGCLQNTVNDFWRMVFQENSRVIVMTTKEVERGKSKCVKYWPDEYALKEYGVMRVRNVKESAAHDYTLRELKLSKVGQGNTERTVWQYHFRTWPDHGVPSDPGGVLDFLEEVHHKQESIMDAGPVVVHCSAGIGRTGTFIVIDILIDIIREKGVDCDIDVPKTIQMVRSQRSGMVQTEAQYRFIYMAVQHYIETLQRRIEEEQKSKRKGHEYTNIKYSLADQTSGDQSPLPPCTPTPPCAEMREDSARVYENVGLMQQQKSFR

| SMILES | IC50 [1, 3] | IC50 [2] | IC50 [1, 4] | IC50 ([1]; Homo sapiens, MIA PaCa-2, pERK1/2 (Thr202/Tyr204) HTRF, 2 hours) |
| --- | --- | --- | --- | --- |
| C#Cc1ccc2c(c1)[C@@H](N)C1(CCN(c3cnc(Sc4ccnc(N)n4)c(N)n3)CC1)C2 [Compound 126] | 42 nM | 2 nM | – | – |
| COCC#Cc1ccc2c(c1)[C@@H](N)C1(CCN(c3cc(=O)n(-c4cccc(OC)c4Cl)c(C)n3)CC1)C2 [Compound 104] | 40 nM | 4 nM | – | – |
| CC#Cc1ccc2c(c1)[C@@H](N)C1(CCN(c3cc(=O)n(-c4ccc(F)c(Cl)c4Cl)c(C)n3)CC1)C2 (atropisomer, axis not shown) [Compound 220] | – | 317 nM | > 1000 nM | – |
| COCC#Cc1ccc2c(c1)[C@@H](N)C1(CCN(c3ncc(Sc4ccnc(N)c4Cl)c4nccn34)CC1)C2 [Compound 40] | 6 nM | 2 nM | – | – |
| C#Cc1ccc2c(c1)[C@@H](N)C1(CCN(c3cc(=O)n(-c4ccccc4Cl)c(C)n3)CC1)C2 (single isomer, unassigned) [Compound 57] | – | 28 nM | 526 nM | – |
| COCC#Cc1cccc2c1CC1(CCN(c3ncc(Sc4ccnc(N)c4Cl)c4nccn34)CC1)[C@@H]2N [Compound 97] | 11 nM | 2 nM | – | – |
| C#Cc1ccc2c(c1)[C@@H](N)C1(CCN(c3cc(=O)n(-c4cccc(OC)c4Cl)c(C)n3)CC1)C2 [Compound 90] | – | 1.1 nM | 53 nM | – |
| C#Cc1ccc2c(c1)[C@@H](N)C1(CCN(c3cc(=O)n(-c4ccc(F)cc4F)c(C)n3)CC1)C2 [Compound 41] | 115 nM | 21 nM | – | – |
| C#Cc1ccc2c(c1)[C@@H](N)C1(CCN(c3cc(=O)n(-c4cccc(C(F)(F)F)c4Cl)c(C)n3)CC1)C2 [Compound 106] | – | 9 nM | 84 nM | – |
| Cc1nc(N2CCC3(CC2)Cc2ccc(C#CCN(C)C)cc2[C@H]3N)cc(=O)n1-c1cccc(F)c1Cl [Compound 74] | 223 nM | 4 nM | – | – |
| CC#Cc1ccc2c(c1)[C@@H](N)C1(CCN(c3ncc(Sc4ccnc(N)c4Cl)c(N)n3)CC1)C2 [Compound 215] | 167 nM | 25 nM | – | – |
| CCOCC#Cc1ccc2c(c1)[C@@H](N)C1(CCN(c3cc(=O)n(-c4cccc(Cl)c4Cl)c(C)n3)CC1)C2 [Compound 115] | 26 nM | 2 nM | – | – |
| C#Cc1ccc2c(c1)[C@@H](N)C1(CCN(c3cc(=O)n(-c4ccc(F)c(F)c4)c(C)n3)CC1)C2 [Compound 15] | 87 nM | 8 nM | – | – |
| C#Cc1ccc2c(c1)[C@@H](N)C1(CCN(c3cc(=O)n(-c4ccc(F)c(OC)c4F)c(C)n3)CC1)C2 [Compound 78] | – | 3 nM | 43 nM | – |
| CNC(=O)C#Cc1cc2c(cc1F)CC1(CCN(c3nc(N)c(Sc4ccnc(N)c4Cl)nc3Cl)CC1)[C@@H]2N [Compound 223] | 23 nM | 4 nM | – | – |
| CNC(=O)C#Cc1ccc2c(c1)[C@@H](N)C1(CCN(c3ncc(Sc4cccnc4C(F)(F)F)nn3)CC1)C2 [Compound 246] | 688 nM | 133 nM | – | – |
| COCCSc1ccc2c(c1)[C@@H](N)C1(CCN(c3ncc(Sc4ccnc(N)n4)c4nccn34)CC1)C2 [Compound 98] | 20 nM | 3 nM | – | – |
| C#Cc1ccc2c(c1)[C@@H](N)C1(CCN(c3cc(=O)n(-c4c(F)cccc4Cl)c(C)n3)CC1)C2 [Compound 68] | 510 nM | 130 nM | – | – |

| SMILES | IC50 [1, 3] | IC50 [2] | IC50 [1, 4] | IC50 ([1]; Homo sapiens, MIA PaCa-2, pERK1/2 (Thr202/Tyr204) HTRF, 2 hours) |
| --- | --- | --- | --- | --- |
| C#Cc1ccc2c(c1)CC1(CCN(c3ncc(Sc4ccnc(NCCO)c4Cl)c4nccn34)CC1)[C@@H]2N [Compound 7] | 28 nM | 10 nM | – | – |
| C#Cc1ccc2c(c1)[C@@H](N)C1(CCN(c3cc(=O)n(-c4cccc(Cl)c4F)c(C)n3)CC1)C2 [Compound 16] | – | 4 nM | 34 nM | – |
| C#Cc1ccc2c(c1)OC1(CCN(c3cc(=O)n(-c4cccc(Cl)c4)c(C)n3)CC1)[C@@H]2N [Compound 18] | – | > 1000 nM | – | – |
| C#Cc1ccc2c(c1)[C@@H](N)C1(CCN(c3cc(=O)n(-c4cc(OC)ccc4Cl)c(C)n3)CC1)C2 [Compound 58] | – | – | 260 nM | – |
| C#Cc1ccc2c(c1)OC1(CCN(c3cc(=O)n(-c4ccc(F)c(F)c4)c(C)n3)CC1)[C@@H]2N [Compound 13] | – | > 1000 nM | – | – |
| C#Cc1ccc2c(c1)[C@@H](N)C1(CCN(c3cc(=O)n(-c4c(Cl)cccc4Cl)c(C)n3)CC1)C2 [Compound 33] | – | 310 nM | – | – |
| C#Cc1ccc2c(c1)CC1(CCN(c3cc(=O)n(-c4ccccc4)c(C)n3)CC1)[C@@H]2N [Compound 23] | – | 757 nM | – | – |
| C#Cc1ccc2c(c1)OC1(CCN(c3cc(=O)n(-c4cccc(Cl)c4Cl)c(C)n3)CC1)[C@@H]2N (atropisomer, axis not shown) [Compound 28] | – | > 1000 nM | – | – |
| C#Cc1ccc2c(c1)CC1(CCN(c3cc(=O)n(-c4cccc(Cl)c4Cl)c(C)n3)CC1)[C@@H]2N (atropisomer, axis not shown) [Compound 24] | – | 412 nM | – | – |
| Cc1nc(N2CCC3(CC2)Cc2ccc(C#CCN(C)C)cc2[C@H]3N)cc(=O)n1-c1cccc(Cl)c1Cl [Compound 52] | 37 nM | – | – | – |
| C#Cc1ccc2c(c1)OC1(CCN(c3nc(C)n(-c4ccc(F)c(F)c4)c(=O)c3C)CC1)[C@@H]2N [Compound 14] | – | > 1000 nM | – | – |
| C#Cc1ccc2c(c1)OC1(CCN(c3cc(=O)n(-c4ccccc4)c(C)n3)CC1)[C@@H]2N [Compound 19] | – | > 1000 nM | – | – |
| COCC#Cc1ccc2c(c1)[C@@H](N)C1(CCN(c3cc(=O)n(-c4cccc(Cl)c4Cl)c(C(F)(F)F)n3)CC1)C2 [Compound 130] | – | > 1000 nM | – | – |
| C#Cc1ccc2c(c1)CC1(CCN(c3cc(=O)n(-c4ccc(Cl)cc4)c(C)n3)CC1)[C@@H]2N [Compound 22] | – | 348 nM | – | – |
| C#Cc1ccc2c(c1)[C@@H](N)C1(CCN(c3cc(=O)n(-c4cccc(C#N)c4Cl)c(C)n3)CC1)C2 [Compound 267] | – | – | > 1000 nM | – |
| C#Cc1ccc2c(c1)[C@@H](N)C1(CCN(c3cc(=O)n(-c4ccc(F)c(F)c4Cl)c(C)n3)CC1)C2 [Compound 77] | – | – | 56 nM | – |
| C#Cc1ccc2c(c1)CC1(CCN(c3cc(=O)n(-c4ccc(F)c(F)c4)c(C)n3)CC1)[C@@H]2N [Compound 21] | – | 541 nM | – | – |
| Cc1nc(N2CCC3(CC2)Cc2ccc(SC4COC4)cc2[C@H]3N)cc(=O)n1-c1cccc(Cl)c1Cl [Compound 81, (S)-6-(1-amino-6-(oxetan-3-ylthio)-1,3-dihydrospiro[indene-2,4′-piperidin]-1′-yl)-3-(2,3-dichlorophenyl)-2-methylpyrimidin-4(3H)-one] | – | – | – | 89 nM |
